Measured values taken from patent US11738027B2, “MPO inhibitors for use in medicine” (AstraZeneca AB, priority 2017, dated 2023).

What was measured:
human sperm = settings: 4 mM, 2-hour incubation, N=29, P<0.01
Procedure: A 10 mM stock solution of the drug was made up in 100% DMSO. This was then serially diluted to a working concentration of 3 μM using sEBSS as the diluent and stored at 4° C. The drug or vehicle was then added to the neutrophils and placed in a 37° C. water bath for 10 min. The neutrophils were then added to the sperm in sperm-safe 5 mL Polystyrene round bottom tubes (Falcon) at a ratio of about 1:3. Zymosan at a final concentration of 1 μg/ml was added to activate the neutrophils and incubated for 2 hours at 37° C.
Following the 2 h incubation with activated neutrophils, aliquots of 50 μL were taken from all 4 conditions and transferred into 1.5 mL Eppendorf tubes. H2O2 was used as a positive control. An extra aliquot for a secondary only control was taken from the sperm only tube. The cells (except the secondary only tube) were incubated for 0.5 h at 37° C. with an anti-malondialdehyde (MDA) antibody (ab27642, abcam, Cambridge) at a working ratio of 1:50 (Moazamian R, Polhemus A, Connaughton H, Fraser B, Whiting S, Gharagozloo P, Aitken R J. Mol Hum Reprod 2015; 21(6):502-15). […] The level of MDA staining in each condition was then assessed in 10,000 cells using a pre-validated flow cytometry program in a BD LSRFortessa cell analyser. Due to a technical error one sample was unable to be assessed using flow cytometry.

[1] = tested on: human sperm with activated human neutrophils; experiment: Sperm motility assessment (Hamilton-Thorn CASA) with activated neutrophils; format: cell-based; settings: 3 μM
Procedure: (§1) The neutrophils were then added to the sperm in sperm-safe 5 mL Polystyrene round bottom tubes (Falcon) at a ratio of about 1:3.
Sperm motility was assessed using the Hamilton-Thorn CASA system. For each condition, a total of 200 cells were counted in at least four different fields of view. Where a sample had very low motility at least 100 cells were counted. The motility parameters were assessed at the start of the co-incubation with neutrophils (time 0), after 2 h and after 24 h. Motility was expressed as a percentage different between time 0 and after 2 h and percentage difference after time 0 and after 24 h for each time point for each sample.

[2] = Phase 1 studies in healthy volunteers, adverse events; format: in vivo, human; settings: oral, single doses up to 1200 mg (1400 mg ER), multiple up to 325 mg TID (600 mg BID 10 days ER), 181 subjects
[3] = tested on: in situ zymosan activated peritoneum neutrophils; experiment: In vivo glutathione sulphonamide formation; set-up: species or system rat; settings: rats, plasma concentration of ~5 μM
[4] = tested on: human sperm with activated human neutrophils; experiment: Kremer penetration assay; format: cell-based; settings: 3 μM
Procedure: as §1
The Kremer penetration test assesses a sperm cell's ability to penetrate and swim through viscous media. This test is also known as the sperm-cervical mucus penetration test. A cervical mucus substitute was made up using 1% methyl cellulose dissolved in capacitating media. The solution was gassed in a 37° C. 5% CO2 incubator for 20 min. Then flat capillary tubes (Rectangle Boro Tubing, CM Scientific) were placed in the methyl cellulose solution for a further 20 min to allow the media to flow up the capillary tubes. After the 2 h incubation, 100 μL from each condition was aliquoted into a fresh sperm safe tube. One end of each tube was then blocked using plasticine and then one tube was placed open end first into each test condition. Each sperm safe tube containing a capillary tube was incubated 1 hour at 37° C. with 5% CO2. After 1 h, the capillary tubes were removed and the number of cells at 1 cm mark were counted manually. The results were expressed as a ratio to control (sperm only).

[5] = tested on: isolated human neutrophils; experiment: PMA stimulated HOCl in isolated neutrophils; format: cell-based; settings: Neutrophil
human MPO = molecular target: T1, human MPO (Homo sapiens, UniProt P05164); experiment: MPO inhibition; format: biochemical; settings: read-out: IC50, irreversible inhibitor of human MPO
T1 sequence (P05164 49-745): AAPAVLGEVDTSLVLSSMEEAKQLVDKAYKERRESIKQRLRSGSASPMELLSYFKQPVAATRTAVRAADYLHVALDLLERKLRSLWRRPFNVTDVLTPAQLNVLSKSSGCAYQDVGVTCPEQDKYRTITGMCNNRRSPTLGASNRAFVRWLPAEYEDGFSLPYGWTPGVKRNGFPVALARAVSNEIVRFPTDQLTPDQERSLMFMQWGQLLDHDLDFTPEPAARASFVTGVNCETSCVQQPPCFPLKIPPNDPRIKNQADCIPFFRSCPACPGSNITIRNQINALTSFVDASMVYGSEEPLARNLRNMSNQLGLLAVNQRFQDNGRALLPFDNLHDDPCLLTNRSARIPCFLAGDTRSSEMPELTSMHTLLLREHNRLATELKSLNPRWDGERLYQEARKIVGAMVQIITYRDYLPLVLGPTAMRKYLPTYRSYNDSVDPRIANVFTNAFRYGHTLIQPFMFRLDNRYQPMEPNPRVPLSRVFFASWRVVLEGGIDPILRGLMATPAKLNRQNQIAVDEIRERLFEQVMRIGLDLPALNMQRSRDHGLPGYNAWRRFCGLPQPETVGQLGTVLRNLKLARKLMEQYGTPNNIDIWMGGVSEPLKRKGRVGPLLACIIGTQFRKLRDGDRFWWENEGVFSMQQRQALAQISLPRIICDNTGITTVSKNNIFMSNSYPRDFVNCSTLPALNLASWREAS

Compound | MDA staining versus the other conditions (human sperm) | absolute change in overall sperm motility from baseline to 2 h and 24 h ([1]; first 11 subjects, vs vehicle, two-tailed t-test P=0.09) | percentage differences between CASA measurements at time zero and after 24-hour incubation (motility, progressive, rapid, VAP, VSL, VCL, ALH) ([1]; n=29, vs vehicle, not statistically significant (P>0.1)) | drug-related adverse events [2] | in vivo formation of glutathione sulphonamide [3] | patients with clinically-relevant beneficial effect ([4]; 29 patients evaluated) | sperm found at 1 cm versus vehicle ([4]; 2 h incubation, n=29, p=0.02) | further subjects showing a smaller improvement ([4]; of 29 patients) | subjects with clinically-relevant improvement in sperm penetration ([4]; of the 29 subjects) | inhibition at 1 µM [5] | IC50 (human MPO)
OO [H2O2, hydrogen peroxide] | stained significantly more |  |  |  |  |  |  |  |  |  | 
O=c1[nH]c(=S)n(C[C@H]2CCCO2)c2nc[nH]c12 [AZD5904, 3-[[(2R)-tetrahydrofuran-2-yl]methyl]-2-thioxo-7H-purin-6-one] |  | statistical trend | positive trend | No overtly drug-related adverse event | decreased | over 50% | significantly more sperm | 8 | 15 | > 90% | 140 nM
